This is an account of results in patent US10307386B2 (priority 2007, dated 2019).

The subject of data set [1] is New Zealand white rabbits fed a high-fat diet (HFD). The experiment in a line: Pilot study: 7-day intraperitoneal cysteamine in rabbits fed a high-fat diet (NAFLD model). As to conditions: for mean LDL-cholesterol value: control HFD 272.5 mg/dL; for mean total cholesterol value: control HFD 842 mg/dL; for mean LDH value: control HFD 190 U/L; for increase in LDL-cholesterol compared to baseline values: control HFD about 29-fold; for increase in total cholesterol over baseline value: control HFD approximately 20-fold; for decrease in LDH compared to baseline values: control HFD increased 1.7-fold. Type of data set: in vivo, rabbit. From the text:
(§1) J. Pathol., 170(3):967-980 (2007). Male New Zealand white rabbits were fed a high-fat diet (HFD) containing 20% corn oil and 1.25% cholesterol in order to induce clinical and histological features characteristic of NAFLD and non-alcoholic steatohepatitis (NASH).
Endpoints included daily standard clinical observations, quantitative daily food consumption, body weights on Study Day (SD) −1, 2, 5, and 8 (day of necropsy), and blood samples collected on SD-1 and SD8 for the evaluation of selected clinical chemistries (alanine aminotransferase (ALT), aspartate aminotransferase (AST), amylase, lipase, total cholesterol, triglycerides, lactate dehydrogenase (LDH), high density lipoprotein cholesterol (HDL-cholesterol), and low density lipoprotein cholesterol (LDL-cholesterol)) and a full hematology panel. Animals were sacrificed on SD8.

In data set [2] the test system is intracellular cystine (circulating white blood cells). As to conditions: taken regularly; measured in circulating white blood cells; cited from earlier work.
Data set [3] has as its system New Zealand white rabbits fed a high fat diet (HFD). As to the kind of experiment: 8-week study: cysteamine in drinking water in rabbits fed a high-fat diet (NAFLD/NASH model). As to conditions: for mean AST value: control HFD 117.1 U/L. In kind it is in vivo.
Description: as §1
The study design included five groups of eight rabbits.
Observations during the study included twice weekly body weights, daily food and water consumption, and daily clinical observations. Blood samples were collected prior to the start of the study, and on weeks 2, 6, and 8 for a full panel of hematology parameters and a selected panel of serum chemistries, including ALT, AST, amylase, lipase, total cholesterol, triglycerides, LDH, HDL-cholesterol, and LDL-cholesterol.

For a further data set, the system named is leukocyte cystine. As to conditions: cited from earlier work.
The subject of data set [4] is obese children who had steatosis. Conditions: vitamin E 400-1000 IU/day for 4-10 months, cited from earlier work.
Data set [5] relates to obese individuals with NASH. Conditions: treated for 4-12 weeks; no reported change in body mass index; cited from earlier work.
Setting [6] is: week 8, 250 mg/kg/day in drinking water.
The mark [7] stands for this setting: delivery of cysteamine to the small intestine.

With `NCCS` [cysteamine], the “LDH as % of the control HFD values on SD8” value in data set [1] (75 mg/kg/day IP Q8H) worked out at 33%. Moreover, the “LDH as % of the control HFD values on SD8” value in data set [1] (250 mg/kg/day IP Q8H) came out at 59%. Further, in data set [1] (SD8, 75 mg/kg/day IP Q8H), the “LDL-cholesterol: % less of an increase than the HFD controls” value was 23%, the “total cholesterol: % less of an increase than the HFD controls” value came out at 23%, the “mean LDL-cholesterol value” stood at 210 mg/dL and the “mean total cholesterol value” is 652 mg/dL. Further, in data set [1] (SD8, 75 mg/kg/day IP Q8H), the “mean LDH value” came out at 128 U/L, the “increase in LDL-cholesterol compared to baseline values” is “about 12 fold”, the “increase in total cholesterol over baseline value” is recorded as around 12 fold and the “decrease in LDH compared to baseline values” worked out at 1.2 fold. In addition, in data set [1] (SD8, 250 mg/kg/day IP Q8H), the “LDL-cholesterol: % less of an increase than the HFD controls” value was 45%, the “decrease in mean AST value vs control HFD group” value is 1.9 fold, the “mean AST as % of the control HFD value” is recorded as 47% and the “total cholesterol: % less of an increase than the HFD control values” is 59%. Besides, in data set [1] (SD8, 250 mg/kg/day IP Q8H), the “mean LDL-cholesterol value” amounted to 150.5 mg/dL, the “mean total cholesterol value” was found to be 347 mg/dL, the “mean LDH value” is reported as 77.5 U/L and the “increase in LDL-cholesterol compared to baseline values” is given as “about 14 fold”. Further, in data set [1] (SD8, 250 mg/kg/day IP Q8H), the “increase in total cholesterol over baseline value” is reported as around 7.5 fold and the “decrease in LDH compared to baseline values” was found to be 3.1 fold. Also, the “mean AST value” in data set [1] (SD8, 250 mg/kg/day IP Q8H, control HFD group 19.0 U/L) is recorded as 10.0 U/L. Besides, in data set [2], the “depletion of intracellular cystine” value is reported as “up to 90%”. For the same compound, the body weights result in data set [3] (cysteamine treated animals vs control HFD animals) is recorded as “parallel those of the control HFD animals”. Besides, the “animals that died on study or were sacrificed moribund” value in data set [3] (rabbit, in vivo, 75 mg/kg/day) is recorded as “Three”. The animals sacrificed moribund result in data set [3] (rabbit, in vivo, 250 mg/kg/day) was “One”. Further, in data set [3] (summary of both rabbit studies), the “AST levels reduced compared to the HFD diet control animals” value was 1.6- to 1.9 fold and the “reductions of AST compared to the HFD diet control animals” value was 37 to 47%. The “mean AST value” in data set [3] (week 8, 25 mg/kg/day in drinking water) is reported as 62.5 U/L. For the same compound, in data set [3] (setting [6]), the “increase in HDL-cholesterol over the HFD control mean value” was 1.6 fold, the “increase in HDL-cholesterol over the control standard diet value” is listed as 3.7 fold and the “mean AST value” is listed as 75.7 U/L. For the same compound, in data set [3] (week 8, 250 mg/kg/day in drinking water, HFD control 36.9, standard diet 15.7 mg/dL), the “mean HDL-cholesterol value” turned out to be 58.3 mg/dL. In addition, the “mean LDH value” in data set [3] (week 8, 250 mg/kg/day in drinking water, HFD control 375 U/L, standard diet control 125.6 U/L) worked out at 140 U/L. Moreover, in data set [3] (week 8, all three dose levels (25, 75, 250 mg/kg/day) in drinking water), the “change in LDH values compared to the Group 2 HFD controls” value is given as “decrease in LDH values at all three dose levels”. Further, the “time to observed decrease in leukocyte cystine” value in the data set with leukocyte cystine (delivery into the small intestine) was “within an hour”. Further, in the data set on leukocyte cystine (setting [7]), the AUC entry is “increases” and the Cmax entry is given as “increases”.
Regarding vitamin E, the “mean AST levels after treatment” value in data set [4] (decreased from 104±61 IU/L, P<0.002) is recorded as 33±11 IU/L. In addition, the “mean ALT levels after treatment” value in data set [4] (decreased from 175±106 IU/L, P<0.01) is 40±26 IU/L.
Turning to `CC(=O)N[C@@H](CS)C(=O)O` [N-acetylcysteine], the “aminotransferase levels and gamma-GT” value in data set [5] is listed as “improvement”.
